Measured values from ChEMBL document CHEMBL1201862, “PubChem BioAssay data set” (2004).
The source made the active and inactive calls. Rule as the data show it, for most assays here: actives have a measured AC50 and inactives only a lower limit.

What was measured:
[1] = control 3'UTR Renilla luciferase suppression, dose response, counter-screen for Shn3 inhibitor project, cell-based, Clone20-Shn3RL, cherry-picked (AID 624133); type: functional
[2] = Shn3 3'UTR reporter inhibitors, dose response, cell-based, Clone20 osteoblasts, firefly luciferase, cherry-picked (AID 624132); type: functional;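 also: firefly luciferase luminescence from reporter carrying the Shn3 3'UTR in osteoblasts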
[3] = HepG2 cell cytotoxicity, dose response, cytotoxicity control for Shn3 inhibitor project, CellTiter-Glo, cherry-picked (AID 624134); type: functional, cell-based
Paired box protein Pax-8 = Paired box protein Pax-8 (Homo sapiens, UniProt Q06710); assay: inhibitors of PAX8-driven TPO luciferase reporter, dose response, RMG-I cells, cherry-pick (AID 687027); type: functional, cell-based;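 also: luciferase reporter driven by Pax8 target thyroperoxidase promoter measured by SteadyGlo luminescence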
Exodeoxyribonuclease V = target: T1, Exodeoxyribonuclease V (Escherichia coli (strain K12), UniProt P04993+P07648+P08394); assay: E. coli RecBCD inhibitors, dose response, counter-screen for AddAB inhibitor project, absorbance, V66 E. coli, mutant T4 phage (AID 492957); type: functional, cell-based, Escherichia coli str. K-12 substr. MG1655
T1 sequence (P04993 whole entry): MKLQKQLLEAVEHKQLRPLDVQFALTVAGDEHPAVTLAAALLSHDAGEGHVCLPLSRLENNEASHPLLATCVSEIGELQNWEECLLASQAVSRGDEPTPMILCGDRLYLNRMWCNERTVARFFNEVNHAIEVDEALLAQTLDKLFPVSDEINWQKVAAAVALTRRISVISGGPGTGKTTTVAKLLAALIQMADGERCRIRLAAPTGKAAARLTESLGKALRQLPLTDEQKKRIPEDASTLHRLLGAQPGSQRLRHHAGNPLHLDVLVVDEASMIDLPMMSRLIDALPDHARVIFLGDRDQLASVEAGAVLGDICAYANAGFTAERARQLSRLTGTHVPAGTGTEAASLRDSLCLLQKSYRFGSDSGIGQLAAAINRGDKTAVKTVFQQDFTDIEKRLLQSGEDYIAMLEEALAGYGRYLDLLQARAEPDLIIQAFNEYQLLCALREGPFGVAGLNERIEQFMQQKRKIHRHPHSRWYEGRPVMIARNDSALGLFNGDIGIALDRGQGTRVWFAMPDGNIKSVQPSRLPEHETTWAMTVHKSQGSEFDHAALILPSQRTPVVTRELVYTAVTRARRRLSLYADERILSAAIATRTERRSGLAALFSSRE
T1 sequence (P07648 whole entry): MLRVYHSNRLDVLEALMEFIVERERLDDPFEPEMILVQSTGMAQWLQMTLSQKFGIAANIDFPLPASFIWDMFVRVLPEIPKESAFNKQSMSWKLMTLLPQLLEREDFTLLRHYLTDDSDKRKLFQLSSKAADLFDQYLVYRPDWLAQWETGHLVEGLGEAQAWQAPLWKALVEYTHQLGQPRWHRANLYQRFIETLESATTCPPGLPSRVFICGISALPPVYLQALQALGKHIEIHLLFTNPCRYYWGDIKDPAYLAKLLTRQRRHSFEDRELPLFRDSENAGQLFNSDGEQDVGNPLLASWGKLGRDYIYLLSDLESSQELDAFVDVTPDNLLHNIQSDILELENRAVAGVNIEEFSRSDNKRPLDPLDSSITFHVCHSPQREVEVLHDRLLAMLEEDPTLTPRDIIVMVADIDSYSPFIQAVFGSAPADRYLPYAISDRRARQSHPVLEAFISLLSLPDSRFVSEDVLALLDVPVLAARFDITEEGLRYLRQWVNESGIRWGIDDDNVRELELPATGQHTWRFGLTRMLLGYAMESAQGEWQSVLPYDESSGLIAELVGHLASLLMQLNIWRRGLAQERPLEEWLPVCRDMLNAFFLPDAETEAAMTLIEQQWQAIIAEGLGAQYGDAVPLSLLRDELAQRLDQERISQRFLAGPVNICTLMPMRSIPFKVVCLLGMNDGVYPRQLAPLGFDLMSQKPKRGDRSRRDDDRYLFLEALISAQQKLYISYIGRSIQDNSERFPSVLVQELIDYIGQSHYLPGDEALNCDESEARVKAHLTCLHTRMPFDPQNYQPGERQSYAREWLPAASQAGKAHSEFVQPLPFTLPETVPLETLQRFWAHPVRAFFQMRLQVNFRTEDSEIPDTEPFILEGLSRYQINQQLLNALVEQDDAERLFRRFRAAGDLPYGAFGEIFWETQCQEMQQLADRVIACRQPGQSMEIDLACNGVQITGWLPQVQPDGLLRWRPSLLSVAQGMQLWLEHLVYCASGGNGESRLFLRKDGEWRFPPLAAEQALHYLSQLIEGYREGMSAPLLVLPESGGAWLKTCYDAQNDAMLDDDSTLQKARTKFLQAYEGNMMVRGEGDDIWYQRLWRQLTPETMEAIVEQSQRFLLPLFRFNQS
T1 sequence (P08394 whole entry): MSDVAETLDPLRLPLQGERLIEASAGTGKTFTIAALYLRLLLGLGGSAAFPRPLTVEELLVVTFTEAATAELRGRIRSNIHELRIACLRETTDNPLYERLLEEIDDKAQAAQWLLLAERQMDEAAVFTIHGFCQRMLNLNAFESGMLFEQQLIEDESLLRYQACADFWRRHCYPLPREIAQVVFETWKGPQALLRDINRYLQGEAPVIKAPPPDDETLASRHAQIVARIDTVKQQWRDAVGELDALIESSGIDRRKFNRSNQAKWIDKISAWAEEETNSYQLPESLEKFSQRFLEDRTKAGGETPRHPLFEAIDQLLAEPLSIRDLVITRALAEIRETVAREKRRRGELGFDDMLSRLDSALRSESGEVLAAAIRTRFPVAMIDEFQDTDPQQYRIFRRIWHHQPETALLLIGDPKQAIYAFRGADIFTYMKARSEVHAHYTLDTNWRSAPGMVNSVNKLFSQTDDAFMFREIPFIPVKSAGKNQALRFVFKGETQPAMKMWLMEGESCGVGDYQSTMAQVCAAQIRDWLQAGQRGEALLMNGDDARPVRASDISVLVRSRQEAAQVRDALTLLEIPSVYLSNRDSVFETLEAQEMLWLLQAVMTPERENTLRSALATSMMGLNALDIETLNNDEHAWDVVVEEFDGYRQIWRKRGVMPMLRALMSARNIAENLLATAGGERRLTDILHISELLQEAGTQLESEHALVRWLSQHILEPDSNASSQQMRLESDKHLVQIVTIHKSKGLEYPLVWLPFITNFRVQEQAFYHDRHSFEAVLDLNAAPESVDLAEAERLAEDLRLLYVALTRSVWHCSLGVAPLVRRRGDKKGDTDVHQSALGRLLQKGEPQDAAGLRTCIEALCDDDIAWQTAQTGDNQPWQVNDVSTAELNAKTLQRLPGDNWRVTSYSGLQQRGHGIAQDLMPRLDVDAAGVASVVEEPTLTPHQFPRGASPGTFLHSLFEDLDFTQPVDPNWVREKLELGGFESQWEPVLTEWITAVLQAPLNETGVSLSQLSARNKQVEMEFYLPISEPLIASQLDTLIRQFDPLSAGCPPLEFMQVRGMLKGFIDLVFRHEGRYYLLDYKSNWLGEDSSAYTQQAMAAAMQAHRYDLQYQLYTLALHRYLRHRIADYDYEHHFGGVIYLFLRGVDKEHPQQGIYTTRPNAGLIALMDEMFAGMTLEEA

Paired box protein Pax-8, sequence (Q06710 whole entry): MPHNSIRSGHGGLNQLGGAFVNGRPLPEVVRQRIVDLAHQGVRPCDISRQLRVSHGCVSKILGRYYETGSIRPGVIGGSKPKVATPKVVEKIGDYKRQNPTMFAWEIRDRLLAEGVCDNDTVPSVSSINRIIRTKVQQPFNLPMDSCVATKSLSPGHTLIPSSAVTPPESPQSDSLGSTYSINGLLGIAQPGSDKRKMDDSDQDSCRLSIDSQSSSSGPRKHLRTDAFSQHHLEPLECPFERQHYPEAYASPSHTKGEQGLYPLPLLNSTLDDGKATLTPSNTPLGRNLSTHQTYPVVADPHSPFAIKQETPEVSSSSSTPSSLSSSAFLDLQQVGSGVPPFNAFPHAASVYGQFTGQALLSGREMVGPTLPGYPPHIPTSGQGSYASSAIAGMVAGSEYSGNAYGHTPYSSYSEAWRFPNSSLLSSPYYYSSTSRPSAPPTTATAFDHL

Row | Compound | AC50 [1] | AC50 [2] | AC50 [3] | AC50 (Paired box protein Pax-8) | IC50 (Exodeoxyribonuclease V)
1 | COc1cc(NC(=O)Cn2ncc(Cl)c(Cl)c2=O)c(C)cc1[N+](=O)[O-] | 3.3 µM (active) | 3.44 µM (active) | 40.9 µM (active) | 4.62 µM (active) | –
2 | Cc1ccc(C)c(S(=O)(=O)N2CCN(Cc3ccc(O)c4ncccc34)CC2)c1 | 1.23 µM (active) | 2.84 µM (active) | 5.3 µM (active) | – | > 119 µM (inactive)
3 | Oc1ccc(/C=N\Nc2cc(N3CCOCC3)nc(N3CCOCC3)n2)c(O)c1 | – | – | – | 20.4 µM (active) | –
